The test system of one assay is S salivarius ATCC 9222. Description: In vitro susceptibility (broth microdilution MIC, MBC by spiral-plating). As to conditions: 24-48 h. Type of assay: cell-based, Streptococcus salivarius. The source says:
(§1) Strains used in Examples 3-6 included ATCC and laboratory strains of different oral bacteria. These included: Actinomyces naeslundii strain T14V-J1, Actinomyces israelii ATCC 10049, Streptococcus mutans strains LT 11 and ATCC 25175, Streptococcus sobrinus ATCC 33478, Streptococcus gordonii strains DL1 and ATCC 51656, Streptococcus sanguis strains SK36 and ATCC 10556, Streptococcus salivarius ATCC 9222, Streptococcus oralis strains 34 and ATCC 35037, Lactobacillus salivarius ATCC 29602, Lactobacillus acidophilus ATCC 4357, and Actinobacillus actinomycetemcomitans ATCC 43718. S. mutans strain LT 11 was kindly provided by Lin Tao, University of Illinois at Chicago, Ill. S. gordonii DLI, S. sanguis SK36, and S. oralis 34 were provided by John Cisar, National Institute of Dental and Craniofacial Research, NIH, Bethesda, Md. […]
(§2) MICs were determined as described by Fuchs et al. (1998) with a slight modification. […] The MIC was defined as the lowest concentration of the peptide that prevented visible turbidity, as measured at 600 nm by using an ELISA reader (Titertek Multiskan MCC/340). […] Minimum bactericidal concentrations (MBCs) were determined by spiral-plating (Spiral Plater Autoplate 4000; Spiral Biotech) 50 μl from each clear well (≧MIC) onto BAP.

A further assay deals with S. mutans LT11. The assay is described as above. Type of assay: cell-based, Streptococcus mutans. Conditions: 4 × 10^7 cells ml^−1, 24-48 h.
Text: as §1, §2

Assay [1] deals with saliva bacteria (facultative anaerobic oral bacteria collected from saliva). Put plainly: In vitro killing of saliva bacteria. In kind it is cell-based. As to conditions: 200 μg KSL ml^−1, 30 min at 37° C., vs PBS. The procedure: The killing assay of saliva bacteria was done according to procedures established by Helmerhorst et al. (1999). Unstimulated saliva was collected from four healthy individuals who had refrained from eating for at least 2 hours. The study was approved by the Institutional Review Board of the Walter Reed Army Institute of Research and informed consent and sample donation consent were obtained from all volunteers. Pooled saliva was initially spun at 500 r.p.m. in an Eppendorf centrifuge (model 5810R) for 10 min at 4° C. to remove epithelial cells and mucus. Saliva bacteria were collected by spinning the supernatant at 4000 r.p.m. for 15 min at 4° C. The pellet was washed three times in 10 mM potassium phosphate buffer (PPB) and suspended in the same buffer to give approximately 1.0×10^7 cells ml^−1. Bacterial suspension (250 μl) was mixed with 250 μl peptide to obtain final peptide concentrations of 12.5, 25, 50, 100 and 200 μg ml^−1. After incubation of the mixture at 37° C. for 30 min, cells were spun down to remove KSL, washed once in PBS having a pH of 7.4 and suspended in PBS before spiral-plating 50 μl of the treated and untreated cells in different dilutions on BAP. The negative control was exposed to buffer only. Saliva bacteria exposed to 0.12% aqueous chlorhexidine served as positive controls. […]

From patent publication US7494980B2, “Antimicrobial peptide and methods of use thereof” (The United States of America as represented by the …, priority 2003, dated 2009) come the findings set out here.

Ends that are not written are not given here.

For orientation: MIC means the lowest concentration that inhibits growth of the organism. One may read the MBC as the lowest tested concentration that kills the bacteria rather than only halting them. Read a low MBC as more potent killing.

With “KKVVFKVKFK-NH2 [KSL, lys-lys-val-val-phe-lys-val-lys-phe-lys]”, the MIC against S salivarius ATCC 9222 (MHB, 4 × 10^6 cells ml^−1, 37° C.) stood at 50 µg/mL; in the assay with S. mutans LT11 (MHB, 37° C.), 25 µg/mL. The MBC against S salivarius ATCC 9222 (clear MIC wells plated on BAP) and against S. mutans LT11 (clear MIC wells plated on BAP) was 100 µg/mL each time. In addition, the “log reduction in facultative anaerobes in saliva” value in assay [1] came to 1.05 log.
